What was measured:
mouse TLR9 = target: T1, mouse TLR9 (Mus musculus, UniProt Q9EQU3); assay: IL-12p40 production in splenocytes from hTLR8tg/TLR7-KO mice, TLR9 agonist 1018; format: cell-based; conditions: 1018 7.1 ug/mL, 48 hours
T1 construct: endogenous in cells; host or cells: primary splenocytes from hTLR8tg/TLR7-KO mice
T1 sequence (Q9EQU3 26-1032): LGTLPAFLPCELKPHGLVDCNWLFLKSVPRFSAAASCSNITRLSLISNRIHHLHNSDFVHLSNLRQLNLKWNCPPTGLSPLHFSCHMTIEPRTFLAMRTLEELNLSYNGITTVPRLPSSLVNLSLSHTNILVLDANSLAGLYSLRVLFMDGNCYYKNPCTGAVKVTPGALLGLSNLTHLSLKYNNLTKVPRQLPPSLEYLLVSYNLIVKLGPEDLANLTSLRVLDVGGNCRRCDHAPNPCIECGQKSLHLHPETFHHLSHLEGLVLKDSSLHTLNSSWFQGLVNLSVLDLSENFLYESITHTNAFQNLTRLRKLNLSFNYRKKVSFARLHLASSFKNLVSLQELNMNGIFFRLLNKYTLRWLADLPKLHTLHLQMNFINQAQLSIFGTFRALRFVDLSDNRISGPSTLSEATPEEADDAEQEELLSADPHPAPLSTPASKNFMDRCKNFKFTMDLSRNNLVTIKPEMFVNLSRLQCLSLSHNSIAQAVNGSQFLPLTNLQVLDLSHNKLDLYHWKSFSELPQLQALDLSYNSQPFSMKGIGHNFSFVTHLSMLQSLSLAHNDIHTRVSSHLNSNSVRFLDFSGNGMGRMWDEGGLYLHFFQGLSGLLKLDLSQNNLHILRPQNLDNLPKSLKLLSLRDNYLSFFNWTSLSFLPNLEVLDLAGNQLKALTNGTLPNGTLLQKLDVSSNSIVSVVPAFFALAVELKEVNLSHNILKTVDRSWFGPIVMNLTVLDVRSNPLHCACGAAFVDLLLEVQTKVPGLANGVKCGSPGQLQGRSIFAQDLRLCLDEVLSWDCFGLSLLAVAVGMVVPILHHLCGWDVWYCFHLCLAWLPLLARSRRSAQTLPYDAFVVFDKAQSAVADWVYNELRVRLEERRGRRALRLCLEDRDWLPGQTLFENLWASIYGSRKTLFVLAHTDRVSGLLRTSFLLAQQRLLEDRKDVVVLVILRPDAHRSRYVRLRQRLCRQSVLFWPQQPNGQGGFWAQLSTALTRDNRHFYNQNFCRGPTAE
Description: (§1) Activity on primary mouse splenocytes: To assess TLR8 and TLR9 activity, spleens were isolated from TLR7 knock-out mice harboring a human TLR8 transgene (hTLR8tg/TLR7-KO). Splenocytes were prepared by dissociation through a cell strainer and removal of red blood cells with lysis buffer. Splenocytes were incubated with a dilution series of compounds and a constant amount of a TLR8 agonist (RNA oligonucleotide ORN8L) or a TLR9 agonist (CpG-containing phosphorothioate DNA oligonucleotide 1018). After 48 hours, culture supernatants were collected and analyzed for IL-12p40 production. Curves represent activity from a single spleen.

human TLR8 transgene = target: T2, human TLR8 transgene (Homo sapiens, UniProt Q9NR97); assay: IL-12p40 production in splenocytes from hTLR8tg/TLR7-KO mice, TLR8 agonist ORN8L; format: cell-based, mouse; conditions: ORN8L 100 ug/mL, 48 hours
T2 construct: expressed in transfected cells; host or cells: primary splenocytes from hTLR8tg/TLR7-KO mice
T2 sequence (Q9NR97 27-1041): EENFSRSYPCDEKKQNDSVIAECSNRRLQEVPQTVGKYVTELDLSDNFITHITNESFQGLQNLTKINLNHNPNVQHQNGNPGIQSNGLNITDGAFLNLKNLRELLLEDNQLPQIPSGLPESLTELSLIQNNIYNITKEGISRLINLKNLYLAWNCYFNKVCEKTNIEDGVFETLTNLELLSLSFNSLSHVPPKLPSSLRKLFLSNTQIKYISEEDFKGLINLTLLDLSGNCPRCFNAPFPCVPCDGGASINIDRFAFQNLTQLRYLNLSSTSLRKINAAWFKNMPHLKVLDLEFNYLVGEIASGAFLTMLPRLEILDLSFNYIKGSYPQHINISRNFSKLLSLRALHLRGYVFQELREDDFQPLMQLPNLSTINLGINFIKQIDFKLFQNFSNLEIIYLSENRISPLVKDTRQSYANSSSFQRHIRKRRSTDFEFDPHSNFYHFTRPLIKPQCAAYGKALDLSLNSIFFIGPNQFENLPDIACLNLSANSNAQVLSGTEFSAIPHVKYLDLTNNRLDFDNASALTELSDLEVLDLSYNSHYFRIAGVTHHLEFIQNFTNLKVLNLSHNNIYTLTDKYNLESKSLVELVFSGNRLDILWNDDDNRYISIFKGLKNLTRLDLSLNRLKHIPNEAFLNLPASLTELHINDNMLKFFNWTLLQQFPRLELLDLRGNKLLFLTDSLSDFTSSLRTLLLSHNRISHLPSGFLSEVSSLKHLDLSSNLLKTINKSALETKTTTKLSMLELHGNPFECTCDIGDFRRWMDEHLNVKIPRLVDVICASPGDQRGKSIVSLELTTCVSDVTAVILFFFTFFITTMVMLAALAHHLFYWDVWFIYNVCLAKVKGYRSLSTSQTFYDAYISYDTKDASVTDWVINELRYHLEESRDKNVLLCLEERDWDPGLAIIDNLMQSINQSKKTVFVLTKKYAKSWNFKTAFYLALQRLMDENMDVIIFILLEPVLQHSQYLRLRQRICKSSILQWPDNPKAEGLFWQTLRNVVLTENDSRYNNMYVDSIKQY
Description: as §1

SMILES: COc1ccc2c(-c3ccc(O)c(C)c3)ccnc2c1 [Compound 11a, 2-Methyl-4-(7-methoxyl-4-quinolinyl)-phenol]
- activity against mouse TLR9 (mouse TLR9): no activity
- IL-12p40 production as a monitor of TLR8 signaling (human TLR8 transgene): inhibition

SMILES: Cc1cc(-c2ccnc3cc(O)ccc23)ccc1O [Compound 11b, 2-Methyl-4-(7-hydroxyl-4-quinolinyl)-phenol]
- activity against mouse TLR9 (mouse TLR9): no activity
- IL-12p40 production as a monitor of TLR8 signaling (human TLR8 transgene): inhibition

— patent publication US11466010B2, “Toll-like receptor 8 (TLR8) specific antagonists and methods of making and uses thereof” (The Regents of the University of Colorado, a body corporate, priority 2017, dated 2022)
